In ChEMBL document CHEMBL3044845, “Synthesis and biological activity studies of furan derivatives” (2010):
Active and inactive are the calls of the source. The rule behind the calls is not given here.

Key:
Escherichia coli [1] = assay: Antibacterial activity against Escherichia coli ATCC […] after 24 hr by disk diffusion method; type: functional
Micrococcus luteus [2] = assay: Antibacterial activity against Micrococcus luteus NRRLB 4375 after 24 hr by disk diffusion method; type: functional
Staphylococcus aureus [3] = assay: Antibacterial activity against Staphylococcus aureus ATCC 25923 after 24 hr by disk diffusion method; type: functional
Priestia megaterium [4] = assay: Antibacterial activity against Bacillus megaterium ATCC 6633 after 24 hr by disk diffusion method; type: functional
Bacillus subtilis [5] = assay: Antibacterial activity against Bacillus subtilis RSKK 244 after 24 hr by disk diffusion method; type: functional
Bacillus subtilis [6] = assay: Antibacterial activity against Bacillus subtilis RSKK 244 at 5 mg/ml after 24 hr by disk diffusion method; type: functional; conditions: for zone of inhibition at 5000 µg/mL: RSKK 244, 24 h, read-out: DIZ
Listeria monocytogenes [7] = assay: Antibacterial activity against Listeria monocytogenes ATCC 7644 at 5 mg/ml after 24 hr by disc diffusion method; type: functional; conditions: for zone of inhibition at 5000 µg/mL: ATCC 7644, 24 h, read-out: DIZ
Pseudomonas aeruginosa [8] = assay: Antibacterial activity against Pseudomonas aeruginosa ATCC […] at 5 mg/ml after 24 hr by disk diffusion method; type: functional; conditions: for zone of inhibition at 5000 µg/mL: read-out: DIZ
Staphylococcus aureus [9] = assay: Antibacterial activity against Staphylococcus aureus ATCC 25923 at 5 mg/ml after 24 hr by disk diffusion method; type: functional; conditions: ATCC 25923, 24 h, read-out: DIZ
Priestia megaterium [10] = assay: Antibacterial activity against Bacillus megaterium ATCC 6633 at 5 mg/ml after 24 hr by disk diffusion method; type: functional
Micrococcus luteus [11] = assay: Antibacterial activity against Micrococcus luteus NRRLB 4375 at 5 mg/ml after 24 hr by disk diffusion method; type: functional; conditions: for zone of inhibition at 5000 µg/mL: NRRLB 4375, 24 h, read-out: DIZ
Escherichia coli [12] = assay: Antibacterial activity against Escherichia coli ATCC […] at 5 mg/ml after 24 hr by disk diffusion method; type: functional; conditions: read-out: DIZ
Salmonella enteritidis [13] = assay: Antibacterial activity against Salmonella enterica subsp. enterica serovar Enteritidis ATCC 1376 at 5 mg/ml after 24 hr by disk diffusion method; type: functional; conditions: for zone of inhibition at 5000 µg/mL: ATCC 1376, 24 h, read-out: DIZ
Listeria monocytogenes [14] = assay: Antibacterial activity against Listeria monocytogenes ATCC 7644 after 24 hr by disk diffusion method; type: functional, organism-based
Salmonella enteritidis [15] = assay: Antibacterial activity against Salmonella enterica subsp. enterica serovar Enteritidis ATCC 1376 after 24 hr by disk diffusion method; type: functional, organism-based
Pseudomonas aeruginosa [16] = assay: Antibacterial activity against Pseudomonas aeruginosa ATCC […] after 24 hr by disk diffusion method; type: functional, organism-based

With `CC1(C)S[C@@H]2[C@H](NC(=O)Cc3ccccc3)C(=O)N2[C@H]1C(=O)O` [PENICILLIN G] the “diameter of the inhibition zone (DIZ)” value (Escherichia coli [1]) was 19 mm and the “diameter of the inhibition zone (DIZ)” value (Micrococcus luteus [2]) was 31 mm.

`CC1(C)S[C@@H]2[C@H](NC(=O)[C@H](N)c3ccccc3)C(=O)N2[C@H]1C(=O)O` [AMPICILLIN] was tested, and the “diameter of the inhibition zone (DIZ)” value (Staphylococcus aureus [3]) was 9 mm, the “diameter of the inhibition zone (DIZ)” value (Priestia megaterium [4]) was 10 mm and the “diameter of the inhibition zone (DIZ)” value (Bacillus subtilis [5]) was 15 mm. The “diameter of the inhibition zone (DIZ)” value (Micrococcus luteus [2]) was 28 mm.

For `CCC1C(C#N)=C(c2ccccc2)OC1(c1ccccc1)c1ccccc1` (stereo not given), the zone of inhibition at 5000 µg/mL (Bacillus subtilis [6]) was 11 mm, the zone of inhibition at 5000 µg/mL (Listeria monocytogenes [7]) was 11 mm and the zone of inhibition at 5000 µg/mL (Pseudomonas aeruginosa [8]) was 12 mm. For the same molecule, the zone of inhibition at 5000 µg/mL (Staphylococcus aureus [9]) was 13 mm, the “diameter of the inhibition zone (DIZ)” value (Priestia megaterium [10]) was “inactive” and the zone of inhibition at 5000 µg/mL (Micrococcus luteus [11]) was 13 mm. The zone of inhibition at 5000 µg/mL (Escherichia coli [12]) was 11 mm and the zone of inhibition at 5000 µg/mL (Salmonella enteritidis [13]) was 13 mm.

For GENTAMICIN, the inhibition zone (IZ) (Listeria monocytogenes [14]) was 10 mm, the inhibition zone (IZ) (Salmonella enteritidis [15]) was 9 mm and the inhibition zone (IZ) (Pseudomonas aeruginosa [16]) was 16 mm.

With `CN(C)[C@@H]1C(O)=C(C(N)=O)C(=O)[C@@]2(O)C(O)=C3C(=O)c4c(O)cccc4[C@@](C)(O)[C@H]3C[C@@H]12` [TETRACYCLINE] the “diameter of the inhibition zone (DIZ)” value (Micrococcus luteus [2]) was 9 mm.

For `CCCC1(c2ccccc2)OC(c2cc3ccccc3o2)=C(C#N)C1c1ccccc1` (stereo not given), the zone of inhibition at 5000 µg/mL (Bacillus subtilis [6]) was 11 mm, the zone of inhibition at 5000 µg/mL (Listeria monocytogenes [7]) was 13 mm and the zone of inhibition at 5000 µg/mL (Pseudomonas aeruginosa [8]) was 10 mm. The zone of inhibition at 5000 µg/mL (Staphylococcus aureus [9]) was 12 mm, the “diameter of the inhibition zone (DIZ)” value (Priestia megaterium [10]) was “inactive” and the zone of inhibition at 5000 µg/mL (Micrococcus luteus [11]) was 13 mm. It also gave a zone of inhibition at 5000 µg/mL (Escherichia coli [12]) of 10 mm and a zone of inhibition at 5000 µg/mL (Salmonella enteritidis [13]) of 14 mm.

In the case of `CCC1C(C#N)=C(c2cccs2)OC1(c1ccccc1)c1ccccc1` (stereo not given), the “diameter of the inhibition zone (DIZ)” value (Bacillus subtilis [6]) is reported as “inactive”, the “diameter of the inhibition zone (DIZ)” value (Listeria monocytogenes [7]) is reported as “inactive” and the “diameter of the inhibition zone (DIZ)” value (Pseudomonas aeruginosa [8]) is reported as “inactive”. For the same molecule, the zone of inhibition at 5000 µg/mL (Staphylococcus aureus [9]) was 8 mm, the “diameter of the inhibition zone (DIZ)” value (Priestia megaterium [10]) was “inactive” and the “diameter of the inhibition zone (DIZ)” value (Micrococcus luteus [11]) was “inactive”. The zone of inhibition at 5000 µg/mL (Escherichia coli [12]) was 10 mm and the “diameter of the inhibition zone (DIZ)” value (Salmonella enteritidis [13]) was “inactive”.

With `CCC1C(C#N)=C(c2ccco2)OC1(c1ccccc1)c1ccccc1` (stereo not given) the zone of inhibition at 5000 µg/mL (Bacillus subtilis [6]) was 11 mm, the zone of inhibition at 5000 µg/mL (Listeria monocytogenes [7]) was 16 mm and the zone of inhibition at 5000 µg/mL (Pseudomonas aeruginosa [8]) was 12 mm. It also gave a zone of inhibition at 5000 µg/mL (Staphylococcus aureus [9]) of 10 mm, a zone of inhibition at 5000 µg/mL (Priestia megaterium [10]; ATCC 6633, 24 h, read-out: DIZ) of 10 mm and a zone of inhibition at 5000 µg/mL (Micrococcus luteus [11]) of 14 mm. For the same molecule, the zone of inhibition at 5000 µg/mL (Escherichia coli [12]) was 13 mm and the zone of inhibition at 5000 µg/mL (Salmonella enteritidis [13]) was 10 mm.

For `CCCC1(c2ccccc2)OC(c2ccccc2)=C(C#N)C1c1ccccc1` (stereo not given), the zone of inhibition at 5000 µg/mL (Bacillus subtilis [6]) was 10 mm, the zone of inhibition at 5000 µg/mL (Listeria monocytogenes [7]) was 18 mm and the zone of inhibition at 5000 µg/mL (Pseudomonas aeruginosa [8]) was 10 mm. For the same molecule, the zone of inhibition at 5000 µg/mL (Staphylococcus aureus [9]) was 14 mm, the “diameter of the inhibition zone (DIZ)” value (Priestia megaterium [10]) was “inactive” and the zone of inhibition at 5000 µg/mL (Micrococcus luteus [11]) was 13 mm. It also gave a zone of inhibition at 5000 µg/mL (Escherichia coli [12]) of 12 mm and a zone of inhibition at 5000 µg/mL (Salmonella enteritidis [13]) of 16 mm.
